# Experimental data published in article PMC6629693 (Scientific Reports, 2019).
# Entries after “also recorded” stand apart in the source; their conditions may differ. Read-outs that look alike come from different tables or passages of the source.
# How the values were obtained:
# [1] = target: D206N HtxB (Stutzerimonas stutzeri, UniProt O69061, D238N); test: biochemical; type: binding, Pseudomonas stutzeri
# [2] = target: T1, WT HtxB (Stutzerimonas stutzeri, UniProt O69061); conditions: pH 5
# [3] = target: T2, D206A HtxB (Stutzerimonas stutzeri, UniProt O69061, D238A)
# [4] = target: T1, WT HtxB; conditions: 10 mM phosphite, 1 mM HtxB
# [5] = target: T2, D206A HtxB; conditions: 10 mM phosphite, pH range 4-9
# [6] = Fig. 1; no reference given; cited from earlier work
# [7] = target: HtxB; conditions: cited from earlier work
# [8] = target: T1, WT HtxB; test: biochemical
# [9] = target: T2, D206A HtxB; test: biochemical
# T2 sequence (O69061 34-298 D238A): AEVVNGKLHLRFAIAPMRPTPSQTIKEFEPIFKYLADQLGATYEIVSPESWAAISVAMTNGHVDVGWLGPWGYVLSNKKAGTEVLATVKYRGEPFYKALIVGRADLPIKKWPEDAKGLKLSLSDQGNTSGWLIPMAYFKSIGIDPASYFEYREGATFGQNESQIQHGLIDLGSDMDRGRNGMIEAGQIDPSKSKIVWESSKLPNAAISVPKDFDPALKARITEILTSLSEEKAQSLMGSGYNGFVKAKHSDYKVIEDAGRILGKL
# D206N HtxB, sequence (O69061 34-298 D238N limits assumed): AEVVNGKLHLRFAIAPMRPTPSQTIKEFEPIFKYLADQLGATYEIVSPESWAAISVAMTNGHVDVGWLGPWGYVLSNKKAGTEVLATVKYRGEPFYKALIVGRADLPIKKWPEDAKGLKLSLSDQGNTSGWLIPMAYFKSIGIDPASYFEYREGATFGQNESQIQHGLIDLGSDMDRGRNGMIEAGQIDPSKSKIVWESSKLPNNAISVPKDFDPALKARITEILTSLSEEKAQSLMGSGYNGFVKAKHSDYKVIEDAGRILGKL
# T1 sequence (O69061 34-298): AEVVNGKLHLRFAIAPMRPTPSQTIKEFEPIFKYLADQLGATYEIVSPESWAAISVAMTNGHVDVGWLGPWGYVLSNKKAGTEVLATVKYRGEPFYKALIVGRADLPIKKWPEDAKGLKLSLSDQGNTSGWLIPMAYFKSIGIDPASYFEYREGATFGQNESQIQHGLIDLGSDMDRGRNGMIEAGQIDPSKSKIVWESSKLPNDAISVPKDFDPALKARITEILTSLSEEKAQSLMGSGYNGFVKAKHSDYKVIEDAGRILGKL
Molecule,Kd [1] [mM],"Kd ([1]; read-out: Calculated Kd, pH 5) [mM]",fold lower affinity than hypophosphite at the same pH [2],binding (in words) ([3]; pH 7.4),"Kd ([3]; read-out: Calculated Kd, pH 5) [mM]",pH of maximal line broadening ([4]; pH 9-4),linebroadening of the 31P peak (in words) ([4]; reducing pH from 9 to 4),linebroadening of the 31P peak (in words) [5],pKa2 [6],Kd ([7]; pH 7.4) [mM],Kd [8] [mM],Kd [9] [mM],ligand concentration at which protein was not saturated in full titration ([1]; 50 mM HEPES pH 7.4) [mM],"binding (in words) ([1]; 50 mM HEPES pH 7.4, 100 mM phosphate)",binding (in words) [7]
O=[PH](O)O [phosphite],> 100,> 100,ca. 1000 ×,No evidence of D206A HtxB binding,> 100,6,significant linebroadening,did not show significant linebroadening,1.3,> 10,1.74,> 100,,,
phosphate,,,,,,,,,,,,,> 100,weakly; also recorded: incredibly weak,does not bind
